{
  "source": "ChEMBL document CHEMBL1201862",
  "about": "“PubChem BioAssay data set” (2004)",
  "key": {"HEK293": {"test_system": "HEK293", "assay": "Fluorescence-based counterscreen for potentiators or agonists of NPY-Y1: cell-based high-throughput dose response assay for inhibitors of cyclic nucleotide gated ion channel (CNGC) activity. In this assay, the parental HEK293 cell line transfected with a cyclic-nucleotide gated ion channel (CNGC)-based cAMP sensor is used to measure inhibition of isoproterenol-induced CNGC …", "type": "functional", "conditions": "Homo sapiens"}, "[1]": {"target": "T1, Neuropeptide Y receptor type 2 (Homo sapiens, UniProt P49146)", "T1 sequence (P49146 whole entry)": "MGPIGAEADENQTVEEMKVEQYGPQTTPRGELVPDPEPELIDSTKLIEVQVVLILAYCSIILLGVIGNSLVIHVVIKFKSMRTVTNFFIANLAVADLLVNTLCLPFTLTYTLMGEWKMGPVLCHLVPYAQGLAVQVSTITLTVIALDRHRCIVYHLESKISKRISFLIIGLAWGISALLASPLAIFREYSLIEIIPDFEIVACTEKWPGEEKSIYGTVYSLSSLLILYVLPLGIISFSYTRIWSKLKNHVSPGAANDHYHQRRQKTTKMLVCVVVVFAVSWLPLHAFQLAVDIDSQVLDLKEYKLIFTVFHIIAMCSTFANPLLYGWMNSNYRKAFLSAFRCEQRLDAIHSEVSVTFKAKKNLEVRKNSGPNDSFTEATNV", "assay": "Fluorescence-based counterscreen for agonists of NPY-Y1: cell-based high-throughput dose response assay for agonists of NPY-Y2.", "type": "functional"}, "[2]": {"target": "T2, Neuropeptide Y receptor type 1 (Homo sapiens, UniProt P25929)", "T2 sequence (P25929 whole entry)": "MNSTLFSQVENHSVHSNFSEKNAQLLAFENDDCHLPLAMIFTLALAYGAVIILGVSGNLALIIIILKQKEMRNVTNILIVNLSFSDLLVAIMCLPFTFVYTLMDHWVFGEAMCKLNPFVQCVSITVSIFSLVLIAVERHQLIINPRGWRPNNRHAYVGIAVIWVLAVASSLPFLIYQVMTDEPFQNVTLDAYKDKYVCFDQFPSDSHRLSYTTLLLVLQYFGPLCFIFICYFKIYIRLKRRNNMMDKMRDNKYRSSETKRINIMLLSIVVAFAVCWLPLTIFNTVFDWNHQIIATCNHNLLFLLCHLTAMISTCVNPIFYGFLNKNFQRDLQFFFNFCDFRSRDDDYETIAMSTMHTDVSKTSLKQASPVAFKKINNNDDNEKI", "assay": "Fluorescence-based dose response cell-based high-throughput screening assay for agonists of NPY-Y1. [Related pubchem assays: 1697 (Screening assay (NPY-Y1 agonists).), 1359 (Screening assay (NPY-Y2 potentiators or agonists).), 1304 (Screening assay (NPY-Y1 potentiators or agonists).), 1704 (Screening assay (CNGC inhibitors).), 1791 (Summary AID.)]", "type": "functional"}, "[3]": {"target": "T3, Eukaryotic translation initiation factor 2-alpha kinase 3 (Homo sapiens, UniProt Q9NZJ5)", "T3 sequence (Q9NZJ5 whole entry)": "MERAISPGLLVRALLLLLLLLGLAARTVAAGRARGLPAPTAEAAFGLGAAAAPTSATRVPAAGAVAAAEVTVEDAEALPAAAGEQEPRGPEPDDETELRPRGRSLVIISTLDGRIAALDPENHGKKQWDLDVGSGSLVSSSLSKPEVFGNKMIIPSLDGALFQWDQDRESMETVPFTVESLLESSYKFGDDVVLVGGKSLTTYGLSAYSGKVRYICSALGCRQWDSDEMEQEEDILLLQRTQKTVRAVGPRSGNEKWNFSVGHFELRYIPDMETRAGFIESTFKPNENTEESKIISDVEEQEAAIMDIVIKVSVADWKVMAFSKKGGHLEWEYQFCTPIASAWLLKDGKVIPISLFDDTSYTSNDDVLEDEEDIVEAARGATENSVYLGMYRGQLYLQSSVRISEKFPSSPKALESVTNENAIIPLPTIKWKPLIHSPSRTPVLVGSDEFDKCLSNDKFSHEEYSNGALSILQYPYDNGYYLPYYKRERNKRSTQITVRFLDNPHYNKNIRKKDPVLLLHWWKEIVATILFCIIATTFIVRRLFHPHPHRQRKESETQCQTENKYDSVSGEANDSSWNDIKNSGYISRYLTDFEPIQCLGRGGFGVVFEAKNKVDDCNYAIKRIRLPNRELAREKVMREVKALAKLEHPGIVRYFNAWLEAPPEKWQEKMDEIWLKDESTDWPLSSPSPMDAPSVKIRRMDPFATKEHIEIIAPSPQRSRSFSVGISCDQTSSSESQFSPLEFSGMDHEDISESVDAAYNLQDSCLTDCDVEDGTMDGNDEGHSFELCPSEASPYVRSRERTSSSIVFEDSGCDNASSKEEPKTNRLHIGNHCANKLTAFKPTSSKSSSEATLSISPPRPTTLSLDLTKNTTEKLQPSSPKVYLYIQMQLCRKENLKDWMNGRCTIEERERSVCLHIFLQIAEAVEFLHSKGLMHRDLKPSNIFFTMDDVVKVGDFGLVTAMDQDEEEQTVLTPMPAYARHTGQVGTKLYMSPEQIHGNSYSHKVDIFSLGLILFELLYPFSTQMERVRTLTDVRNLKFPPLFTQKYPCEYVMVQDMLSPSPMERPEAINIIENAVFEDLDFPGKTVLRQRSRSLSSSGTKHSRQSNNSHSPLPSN", "assay": "Dose response cell-based high-throughput screening assay to measure PERK inhibition. [Related pubchem assays: 1416 ]", "type": "functional"}, "[4]": {"target": "T3, Eukaryotic translation initiation factor 2-alpha kinase 3", "assay": "Counterscreen assay for PERK inhibitors: Dose response cell-based high throughput screening assay to measure inhibition of PERK at 6 hours. [Related pubchem assays: 1522, 1416 ]", "type": "functional"}, "Chaperone protein dnaK": {"target": "Chaperone protein dnaK (Escherichia coli, UniProt C3TRK2)", "sequence (C3TRK2 whole entry)": "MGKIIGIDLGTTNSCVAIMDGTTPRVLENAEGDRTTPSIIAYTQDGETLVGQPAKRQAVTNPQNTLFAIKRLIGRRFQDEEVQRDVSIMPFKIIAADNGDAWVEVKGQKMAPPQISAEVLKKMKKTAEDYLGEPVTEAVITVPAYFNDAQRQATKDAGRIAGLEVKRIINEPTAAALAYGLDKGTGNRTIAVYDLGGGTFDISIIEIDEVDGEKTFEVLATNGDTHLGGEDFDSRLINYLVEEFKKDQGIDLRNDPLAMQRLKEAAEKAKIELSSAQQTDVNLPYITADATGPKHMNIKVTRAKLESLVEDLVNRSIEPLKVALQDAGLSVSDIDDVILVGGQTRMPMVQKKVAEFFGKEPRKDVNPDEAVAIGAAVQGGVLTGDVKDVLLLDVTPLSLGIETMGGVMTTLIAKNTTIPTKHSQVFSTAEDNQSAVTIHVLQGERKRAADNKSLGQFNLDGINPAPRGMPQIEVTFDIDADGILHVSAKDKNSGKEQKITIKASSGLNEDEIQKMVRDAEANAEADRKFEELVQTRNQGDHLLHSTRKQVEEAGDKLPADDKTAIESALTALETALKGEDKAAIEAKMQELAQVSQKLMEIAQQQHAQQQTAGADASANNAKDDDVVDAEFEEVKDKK", "assay": "DnaK beta-domain binding affinity, SAR follow-up, orthogonal assay for DnaK modulator project, biophysical, isothermal titration calorimetry, full-length DnaK (AID 1495)"}},
  "note": "Activity calls are given as the source filed them.",
  "data": [
    {"compound": "O=C(Nc1ccncc1)c1ccc2c(c1)C(=O)N(C1CCCCC1)C2=O", "values": [
      {"measurement": "IC50", "setting": "HEK293", "result": "> 35.4 µM (not active)"},
      {"measurement": "EC50", "setting": "[1]", "result": "> 35.4 µM (not active)"},
      {"measurement": "EC50", "setting": "[2]", "result": "> 35.4 µM (not active)"}
    ]},
    {"compound": "Cc1c(O)n2c(nc1=O)sc1ccccc12", "values": [
      {"measurement": "EC50", "setting": "[3]", "result": "> 55.7 µM (not active)"},
      {"measurement": "EC50", "setting": "[4]", "result": "> 55.7 µM (not active)"}
    ]},
    {"compound": "O=C(NCc1cccc2ccsc12)c1cccs1", "values": [
      {"measurement": "Kd", "setting": "Chaperone protein dnaK", "result": "0.2 µM (active)"}
    ]}
  ]
}
